One experiment relates to K562. Nature of the experiment: Cell growth assay, K562. The experiment is classed as cell-based. The following applies: Homo sapiens. The protocol: All media was supplemented with 100 U/mL penicillin and 100 μg/mL streptomycin. Human cancer cell lines were grown in the following media: MV4; 11, K562, MOLM-14 in RPMI-1640, 10% FBS; SKNO-1 in RPMI-1640, 10% FBS, and 10 ng/mL GM-CSF; MV4;11 and K562 were from ATCC. SKNO-1 was from DSMZ.
(§1) Cell Culture. All media was supplemented with 100 U/mL penicillin and 100 μg/mL streptomycin. Human cancer cell lines were grown in the following media: MV4; 11, RS4; 11, K562, HEL, MOLM-14, MEG-01 in RPMI-1640, 10% FBS; SET-2 in RPMI-1640, 20% FBS; UKE-1 in RPMI-1640, 10% FBS, 10% horse serum and 1 μM hydrocortisone; SKNO-1 and TF-1 in RPMI-1640, 10% FBS, and 10 or 2 ng/mL GM-CSF, respectively; HaCaT in DMEM, 10% FBS; and HCT116 in McCoy's 5 A, 10% FBS (proliferation assay) or DMEM, 10% FBS (gene expression study). HepG2, MV4;11, RS4;11, MEG-01, TF-1, HCT116 and K562 were from ATCC. SKNO-1 was from DSMZ. HEL, UKE-1, and SET-2 were provided by Ross L. Levine and HaCaT, MV4;11-mCLP, and MOLM-14 by Van Wilson, Andrew L. Kung, and Scott A. Armstrong, respectively. MOLM-14 cells were authenticated by STR profiling and flow cytometry and all cell lines were routinely tested and found to be negative for mycoplasma.

The test system of another experiment is RS4;11. Nature of the experiment: Cell growth assay, RS4;11. The experiment is classed as cell-based. The following applies: Homo sapiens, RS4-11, 240 h; CA, after 10 days; read-out: Mean GI50 (nM), RS4;11. The method, then: as §1
In a further experiment the test system is HCT116. Nature of the experiment: Cell growth assay, HCT116 (CellTiter-Blue). The following applies: Homo sapiens. The format is cell-based. The protocol: as §1
The subject of experiment [1] is myeloid, mixed-lineage, and megakaryoblastic leukemia cell lines. Nature of the experiment: Cell growth assay, leukemia cell lines in general. The experiment is classed as cell-based. The note with it: Homo sapiens, 240 h; 10-day treatment.
For experiment [2], the target named is T1, ROCK2 in MOLM-14 cell lysate (Homo sapiens, UniProt O75116).
T1 construct: endogenous in cells; host or cells: MOLM-14 cell lysate
T1 sequence (O75116 whole entry): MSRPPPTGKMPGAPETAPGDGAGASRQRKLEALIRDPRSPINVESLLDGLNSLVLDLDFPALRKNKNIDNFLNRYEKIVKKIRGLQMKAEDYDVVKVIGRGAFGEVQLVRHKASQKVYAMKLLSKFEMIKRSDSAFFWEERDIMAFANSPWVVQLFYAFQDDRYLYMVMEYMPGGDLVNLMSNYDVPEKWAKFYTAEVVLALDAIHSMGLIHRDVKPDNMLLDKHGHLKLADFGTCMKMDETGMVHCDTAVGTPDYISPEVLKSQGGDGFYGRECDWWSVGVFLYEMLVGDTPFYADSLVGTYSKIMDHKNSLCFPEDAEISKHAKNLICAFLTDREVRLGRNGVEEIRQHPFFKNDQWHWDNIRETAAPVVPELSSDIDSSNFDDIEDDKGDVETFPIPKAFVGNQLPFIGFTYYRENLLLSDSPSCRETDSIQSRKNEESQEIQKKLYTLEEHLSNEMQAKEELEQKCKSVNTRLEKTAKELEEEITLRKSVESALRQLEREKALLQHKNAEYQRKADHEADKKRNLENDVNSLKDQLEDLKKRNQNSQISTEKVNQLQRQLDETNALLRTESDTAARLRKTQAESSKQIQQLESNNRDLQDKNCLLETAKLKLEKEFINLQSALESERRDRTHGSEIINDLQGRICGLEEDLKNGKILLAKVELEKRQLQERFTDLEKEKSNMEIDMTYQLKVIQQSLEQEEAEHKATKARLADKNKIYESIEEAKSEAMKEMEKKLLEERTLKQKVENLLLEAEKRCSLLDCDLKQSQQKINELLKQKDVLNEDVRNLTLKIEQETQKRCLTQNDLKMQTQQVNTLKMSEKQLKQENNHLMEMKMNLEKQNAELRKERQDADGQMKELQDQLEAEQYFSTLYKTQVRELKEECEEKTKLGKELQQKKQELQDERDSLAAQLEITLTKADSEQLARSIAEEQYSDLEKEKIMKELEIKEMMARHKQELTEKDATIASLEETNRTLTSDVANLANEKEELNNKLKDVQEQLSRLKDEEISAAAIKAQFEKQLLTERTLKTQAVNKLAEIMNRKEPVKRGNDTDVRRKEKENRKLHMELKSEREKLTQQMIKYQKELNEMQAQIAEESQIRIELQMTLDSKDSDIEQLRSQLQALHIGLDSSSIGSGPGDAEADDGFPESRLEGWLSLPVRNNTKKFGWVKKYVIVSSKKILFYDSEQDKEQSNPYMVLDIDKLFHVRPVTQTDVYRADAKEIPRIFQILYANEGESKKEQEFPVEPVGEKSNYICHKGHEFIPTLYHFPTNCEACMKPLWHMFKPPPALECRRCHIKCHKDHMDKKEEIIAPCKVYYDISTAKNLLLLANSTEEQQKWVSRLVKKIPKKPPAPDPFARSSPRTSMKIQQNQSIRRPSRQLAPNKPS
Nature of the experiment: Native kinase capture immunoblot, ROCK2. The format is binding. The method, then: (§2) Native Kinase Capture Immunoblot and Native Kinome-Wide Profiling. […] Experiment was performed twice with one immunoblot shown.
On the technique in general: A western blot detects proteins with antibodies after separation by electrophoresis.

Experiment [3] concerns the target T2, GSG2 in MOLM-14 cell lysate (Homo sapiens, UniProt Q8TF76).
T2 construct: endogenous in cells; host or cells: MOLM-14 cell lysate
Nature of the experiment: Native kinase capture immunoblot, GSG2. The format is binding. The method, then: as §2

Like-named read-outs stand apart in the source and are kept apart here. Bounds are passed on as bounds.

Here are results for 1 compound from patent US10273240B2, “Cortistatin analogues, syntheses, and uses thereof” (President and Fellows of Harvard College, priority 2015, dated 2019).

By GI50 is commonly meant the concentration that inhibits growth by half.

T2 sequence (Q8TF76 whole entry): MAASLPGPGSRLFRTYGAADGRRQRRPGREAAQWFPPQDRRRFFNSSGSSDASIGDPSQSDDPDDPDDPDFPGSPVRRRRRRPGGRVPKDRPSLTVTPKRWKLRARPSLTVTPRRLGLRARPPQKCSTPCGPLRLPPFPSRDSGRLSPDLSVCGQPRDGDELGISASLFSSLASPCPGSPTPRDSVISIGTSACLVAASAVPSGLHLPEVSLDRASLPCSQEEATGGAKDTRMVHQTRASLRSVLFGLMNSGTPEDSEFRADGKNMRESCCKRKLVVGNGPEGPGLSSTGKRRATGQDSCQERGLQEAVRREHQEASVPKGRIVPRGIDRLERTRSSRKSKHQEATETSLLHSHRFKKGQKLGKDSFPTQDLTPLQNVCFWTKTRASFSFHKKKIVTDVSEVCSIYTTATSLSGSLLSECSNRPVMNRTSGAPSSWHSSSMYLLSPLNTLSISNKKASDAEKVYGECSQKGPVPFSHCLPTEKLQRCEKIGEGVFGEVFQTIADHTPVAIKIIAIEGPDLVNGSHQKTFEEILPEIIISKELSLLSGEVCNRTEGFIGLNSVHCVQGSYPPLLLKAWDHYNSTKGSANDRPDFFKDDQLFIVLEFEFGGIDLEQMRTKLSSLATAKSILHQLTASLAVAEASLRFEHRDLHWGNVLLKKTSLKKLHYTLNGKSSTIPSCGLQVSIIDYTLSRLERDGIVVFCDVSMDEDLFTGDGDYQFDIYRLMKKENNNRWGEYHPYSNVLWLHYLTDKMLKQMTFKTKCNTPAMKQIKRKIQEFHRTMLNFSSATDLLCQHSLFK

Consider `CN(C)[C@H]1C[C@@]23CC[C@@]4(O2)C(=CC[C@@]2(C)[C@@H](c5ccc6ccncc6c5)CC[C@H]24)C=C3[C@@H](O)[C@@H]1O` [CA, cortistatin A], for which the GI50 is greater than 1000 nM with K562 (K562, 240 h, CA, after 10 days, read-out: Mean GI50 (nM), K562); greater than 1000 nM with K562 (K562, 240 h, read-out: K562 GI50 day 10); greater than 1000 nM in the experiment with K562 (K562, Table 5, read-out: GI50 (nM), K562); 3 nM in the experiment with RS4;11; greater than 1000 nM in the experiment on HCT116 (HCT-116, 168 h, after 7 days, read-out: Mean GI50 (nM), HCT116); greater than 1000 nM in the experiment with HCT116 (HCT-116, Table 5, read-out: GI50 (nM), HCT116). In experiment [1], this compound registered a GI50 of less than 0.01 µM. Further, in experiment [2], the “binding of ROCK2 (no binding up to)” value is greater than 2500 nM. For the same compound, the “binding of GSG2 (no binding at up to)” value in experiment [3] is recorded as greater than 2500 nM.
